Values quoted from earlier work in patent US20130323323A1, “Therapeutic Method and Associated Compound for Augmenting the Liver's Metabolization of Oxygen-Modified Toxins” (priority 2012, published 2013).
Read-outs that look alike come from different tables or passages of the source. One block for each compound: values may come before it.

Key:
[1] = pure oxygen via inhalation; rats, cats, and dogs
[2] = not given; remark: listed apart in the source
[3] = limited supply of oxygen to the liver

solubility of oxygen in water (5 degrees Celsius and 1 standard atmosphere): 9 ppm
solubility of oxygen in water (25 degrees Celsius and 1 standard atmosphere): 6 ppm
SMILES: O=O [oxygen]
increase in the elimination rate of ethanol [1]: No measurable increase

SMILES: Cn1c(=O)c2c(ncn2C)n(C)c1=O [Caffeine]
time to peak plasma concentration ([2]; after ingestion): 30 to 45 min
bioavailable ([2]; in vivo): ~100%

SMILES: CCO [alcohol, Ethanol]
rate at which alcohol is metabolized (plateau) [3]: around 0.02 g alcohol/100 ml blood per hour
